Laboratory results reported in US12173135B2, “Plasticizer and plastic product” (LARGAN MEDICAL CO., LTD., priority 2019, dated 2024).
Each block holds one compound with its values, some of them ahead of it.

Test: biodegradation tests (ASTM 5338) of the plasticizers
Protocol: The biodegradation tests (ASTM 5338) of the plasticizers with different molecular structures are performed below. The comparison, the 29th Example and the 30th Example are tested, and the degrees of degradation under different days are listed in the following table.

Degree of Degradation (%) (day 0): 0%
Degree of Degradation (%) (day 3): 6.70%
Degree of Degradation (%) (day 7): 8.53%
Degree of Degradation (%) (day 12): 20.53%
Degree of Degradation (%) (day 15): 26.53%
Degree of Degradation (%) (day 19): 35.22%
Degree of Degradation (%) (day 24): 44.08%
Degree of Degradation (%) (day 28): 48.75%
Degree of Degradation (%) (day 33): 51.62%
Degree of Degradation (%) (day 36): 53.72%
Degree of Degradation (%) (day 40): 55.78%
Degree of Degradation (%) (day 45): 57.19%
Degree of Degradation (%) (day 49): 58.41%
Degree of Degradation (%) (day 54): 59.35%
Degree of Degradation (%) (day 58): 59.61%
Degree of Degradation (%) (day 63): 59.85%
Degree of Degradation (%) (day 67): 60.34%
Degree of Degradation (%) (day 71): 62.58%
Degree of Degradation (%) (day 75): 63.96%
Degree of Degradation (%) (day 81): 63.75%
Degree of Degradation (%) (day 85): 62.72%
Degree of Degradation (%) (day 89): 64.14%
Degree of Degradation (%) (day 93): 65.04%
Degree of Degradation (%) (day 98): 65.04%
Degree of Degradation (%) (day 102): 66.44%
Degree of Degradation (%) (day 105): 66.44%
Degree of Degradation (%) (day 109): 66.25%
Degree of Degradation (%) (day 114): 66.04%
Degree of Degradation (%) (day 118): 66.80%
Degree of Degradation (%) (day 124): 66.80%
Degree of Degradation (%) (day 128): 67.01%
Degree of Degradation (%) (day 132): 66.81%
Degree of Degradation (%) (day 137): 66.81%
Degree of Degradation (%) (day 140): 66.81%
Degree of Degradation (%) (day 144): 66.01%
Degree of Degradation (%) (day 147): 64.81%
Degree of Degradation (%) (day 151): 64.62%
Degree of Degradation (%) (day 155): 64.23%
Degree of Degradation (%) (day 158): 65.50%
Degree of Degradation (%) (day 161): 66.30%
Degree of Degradation (%) (day 165): 66.92%
Degree of Degradation (%) (day 168): 65.84%
Degree of Degradation (%) (day 172): 67.51%
Degree of Degradation (%) (day 175): 69.97%
Degree of Degradation (%) (day 179): 71.93%
SMILES: CCCCCCCCOC(=O)CC(N)C(=O)OCCCCCCCC (racemic) [29th Example]

Degree of Degradation (%) (day 0): 0%
Degree of Degradation (%) (day 3): 3.21%
Degree of Degradation (%) (day 7): 1.97%
Degree of Degradation (%) (day 12): 1.09%
Degree of Degradation (%) (day 15): 1.87%
Degree of Degradation (%) (day 19): 4.13%
Degree of Degradation (%) (day 24): 6.63%
Degree of Degradation (%) (day 28): 13.13%
Degree of Degradation (%) (day 33): 17.63%
Degree of Degradation (%) (day 36): 26.70%
Degree of Degradation (%) (day 40): 33.47%
Degree of Degradation (%) (day 45): 38.10%
Degree of Degradation (%) (day 49): 43.93%
Degree of Degradation (%) (day 54): 47.28%
Degree of Degradation (%) (day 58): 60.14%
Degree of Degradation (%) (day 63): 67.90%
Degree of Degradation (%) (day 67): 69.50%
Degree of Degradation (%) (day 71): 71.37%
Degree of Degradation (%) (day 75): 72.99%
Degree of Degradation (%) (day 81): 73.19%
Degree of Degradation (%) (day 85): 73.19%
Degree of Degradation (%) (day 89): 73.53%
Degree of Degradation (%) (day 93): 78.89%
Degree of Degradation (%) (day 98): 78.51%
Degree of Degradation (%) (day 102): 78.14%
Degree of Degradation (%) (day 105): 78.50%
Degree of Degradation (%) (day 109): 81.63%
Degree of Degradation (%) (day 114): 81.09%
Degree of Degradation (%) (day 118): 84.55%
Degree of Degradation (%) (day 124): 84.55%
Degree of Degradation (%) (day 128): 86.04%
Degree of Degradation (%) (day 132): 86.55%
Degree of Degradation (%) (day 137): 86.81%
Degree of Degradation (%) (day 140): 86.58%
Degree of Degradation (%) (day 144): 86.58%
Degree of Degradation (%) (day 147): 87.69%
Degree of Degradation (%) (day 151): 88.54%
Degree of Degradation (%) (day 155): 88.54%
Degree of Degradation (%) (day 158): 87.80%
Degree of Degradation (%) (day 161): 87.80%
Degree of Degradation (%) (day 165): 87.80%
Degree of Degradation (%) (day 168): 88.40%
Degree of Degradation (%) (day 172): 89.55%
Degree of Degradation (%) (day 175): 89.91%
Degree of Degradation (%) (day 179): 91.46%
SMILES: O=C(OCCOC(=O)c1ccccc1O)c1ccccc1O [30th Example]
